Laboratory results reported in patent publication US20180221487A1, “NOVEL PROTEIN TRANSFECTION COMPOSITIONS AND USES THEREOF” (Chang Gung Memorial Hospital, Linkou, priority 2017, published 2018).
“Also recorded” adds a separate entry of the source.

How the values were obtained:
[1] = test system: human ovarian cancer cells; experiment: HEPES-mediated protein transfection pathway with endocytic inhibitors; format: cell-based; conditions: pretreatment 30 min: 0.2-0.4 M sucrose, 5 μg/ml filipin or 0.0125-0.25 mM amiloride; 20 mM HEPES; after 4 hours and 24 hours
Description: Immunofluorescent staining procedure: After protein transfection is completed, the cells in the culture dish were washed three times with phosphate buffered saline (PBS) and fixed with 4% paraformaldehyde for 20 min. The cells were washed again with PBS, perforated with 0.1% Triton X-100 for 5 min, and blocked with 10% BSA for 30 min. For Alexa Fluor 488 anti-mouse IgGs, cells were stained with DAPI for 10 min. For B23, histone 1 or GAPDH antibody transfection, cells were stained with Alexa Fluor 488 or 546 anti-mouse IgG antibodies for 30 min and then stained with DAPI. For […]1 proteins or Flag-Rev peptides transfection, cells were stained with anti-v5 or anti-flag antibodies, respectively, and then stained with Alexa Fluor 488 anti-mouse IgG and DAPI. All images were detected by confocal microscopes (Leica, Wetzlar, Germany). The fluorescent signals were analyzed and quantified by Q-Win software (Leica, Wetzlar, Germany). An in vitro evaluation of HEPES-mediated protein transfection pathway was performed using the following endocytic inhibitors: sucrose (a clathrin-mediated endocytic inhibitor), filipin (a caveolae-mediated endocytic inhibitor) and amiloride (a macropinocytic inhibitor). Human ovarian cancer cells were pretreated with Opti-MEM (the control group), 0.2-0.4 M sucrose, 5 μg/ml filipin or 0.0125-0.25 mM amiloride for 30 min, followed by the transfection of Alexa Fluor 488 anti-mouse IgG antibodies using 20 mM HEPES buffer according to the steps in Example 1. The IgG antibody transfection efficiency was assessed by confocal fluorescent microscopy. […] The fluorescent signals of IgG were quantified by Q-Win software, expressed as a relative ratio in FIGS. 12C and 12D (error bars indicate s.e.m. (n=3) and asterisk denotes significant difference, P<0.001). […] The HEPES mediated protein transfection is induced by at least one of the following pathways: clathrin-mediated or caveolae-mediated endocytosis, or macropinocytosis.

[2] = test system: breast cancer cells (BRCA011); experiment: Alexa Fluor 488 anti-mouse IgG transfection, immunofluorescent staining; format: cell-based, human; conditions: after 24 hours of incubation
Description: (§1) Immunofluorescent staining procedure: After protein transfection is completed, the cells in the culture dish were washed three times with phosphate buffered saline (PBS) and fixed with 4% paraformaldehyde for 20 min. The cells were washed again with PBS, perforated with 0.1% Triton X-100 for 5 min, and blocked with 10% BSA for 30 min. For Alexa Fluor 488 anti-mouse IgGs, cells were stained with DAPI for 10 min. For B23, histone 1 or GAPDH antibody transfection, cells were stained with Alexa Fluor 488 or 546 anti-mouse IgG antibodies for 30 min and then stained with DAPI. For […]1 proteins or Flag-Rev peptides transfection, cells were stained with anti-v5 or anti-flag antibodies, respectively, and then stained with Alexa Fluor 488 anti-mouse IgG and DAPI. All images were detected by confocal microscopes (Leica, Wetzlar, Germany). The fluorescent signals were analyzed and quantified by Q-Win software (Leica, Wetzlar, Germany). FIG. 1 schematically illustrates the protein transfection procedure. Briefly, the protein of interest and a protein transfection composition, such as HEPES buffer, were mixed and incubated for about 15 min to about 30 min to form a mixture (Panel A). […] The protein transfection efficiency can be analyzed using immunofluorescent staining or flow cytometry (Panel D). […] The protein transfection efficiency was assessed by flow cytometry or confocal microscope.

[3] = test system: breast cancer cells (BRCA009); experiment: as above; format: cell-based, human; conditions: after 6 hours of incubation
Description: as §1

[4] = test system: endometrial cancer cells; experiment: Cytotoxicity of HEPES buffer concentrations (MTT and LDH assay); format: cell-based, human; conditions: Opti-MEM and HEPES buffer 0-200 mM, 24 h
Description: (§2) MTT and LDH assay: In MTT assay, the cells were incubated for 24 h and then centrifuged at 1500 rpm for 5 min. The supernatants were discarded and attached cells were analyzed by MTT reagent (Promega Corporation, Wisconsin, US). In LDH assay, the cells were incubated for […] and then centrifuged at 1500 rpm for 5 min. The supernatants were collected and analyzed by LDH reagent (Sigma, St. Louis, Mo., USA). The cell viability (MTT assay) and cytotoxicity (LDH assay) were assayed following the manufacturer's protocol. The MTT and LDH signals were detected by ELISA Reader (Tecan Systems, Inc., San Jose, Calif., USA).
(§3) The cytotoxicity of various HEPES buffer concentrations was evaluated. Human ovarian cancer cells and endometrial cancer cells were incubated in Opti-MEM and HEPES buffer (0-200 mM) for 24 h. Cell viability and cytotoxicity were analyzed by MTT and LDH assay, respectively.

[5] = test system: colon cancer; experiment: Alexa Fluor 488 anti-mouse IgG transfection, immunofluorescent staining; format: cell-based; conditions: HEPES buffer 20 mM-40 mM
Description: (§4) Immunofluorescent staining procedure: After protein transfection is completed, the cells in the culture dish were washed three times with phosphate buffered saline (PBS) and fixed with 4% paraformaldehyde for 20 min. The cells were washed again with PBS, perforated with 0.1% Triton X-100 for 5 min, and blocked with 10% BSA for 30 min. For Alexa Fluor 488 anti-mouse IgGs, cells were stained with DAPI for 10 min. For B23, histone 1 or GAPDH antibody transfection, cells were stained with Alexa Fluor 488 or 546 anti-mouse IgG antibodies for 30 min and then stained with DAPI. For […]1 proteins or Flag-Rev peptides transfection, cells were stained with anti-v5 or anti-flag antibodies, respectively, and then stained with Alexa Fluor 488 anti-mouse IgG and DAPI. All images were detected by confocal microscopes (Leica, Wetzlar, Germany). The fluorescent signals were analyzed and quantified by Q-Win software (Leica, Wetzlar, Germany). FIG. 1 schematically illustrates the protein transfection procedure. Briefly, the protein of interest and a protein transfection composition, such as HEPES buffer, were mixed and incubated for about 15 min to about 30 min to form a mixture (Panel A). Cells to be transfected were replaced in a minimal essential medium (Panel B). The mixture in Panel A was added to the cells in Panel B and incubated at 37° C. for about 4 to about 24 hours (Panel C). The protein transfection efficiency can be analyzed using immunofluorescent staining or flow cytometry (Panel D). Alexa Fluor 488 anti-mouse IgG or […]1 were incubated with Opti-MEM (the control group) or HEPES buffer (20 mM-40 mM) to transfect the following cancer cells according to the steps in Example 1: human cervical cancer cells, human breast cancer cells (MCF7, BRCA009 or BRCA011), human endometrial cancer cells, lung adenocarcinoma cells, human pancreatic cancer cells, hepatocellular carcinoma cells, scarcoma cells, renal cell carcinoma cells, lymphoma cells, nasopharyngeal carcinoma cells, brain tumor cells, colon cancer cells, and leukemic cells. The protein transfection efficiency was assessed by flow cytometry or confocal microscope.

[6] = test system: nasopharyngeal carcinoma; experiment: as above; format: cell-based; conditions: HEPES buffer 20 mM-40 mM
Description: as §4

[7] = test system: non Hodgkin's lymphoma; experiment: as above; format: cell-based; conditions: HEPES buffer 20 mM-40 mM
Description: as §4

[8] = test system: leukemia cells; experiment: as above; format: cell-based; conditions: HEPES buffer 20 mM-40 mM
Description: as §4

[9] = test system: brain tumor; experiment: as above; format: cell-based; conditions: HEPES buffer 20 mM-40 mM
Description: as §4

[10] = test system: scarcoma cells; experiment: as above; format: cell-based; conditions: HEPES buffer 20 mM-40 mM
Description: as §4

[11] = test system: renal cell carcinoma; experiment: as above; format: cell-based; conditions: HEPES buffer 20 mM-40 mM
Description: as §4

[12] = test system: human ovarian cancer cells (MDAH2774); experiment: Protein transfection, immunofluorescent staining / confocal microscopy; format: cell-based
Description: Immunofluorescent staining procedure: After protein transfection is completed, the cells in the culture dish were washed three times with phosphate buffered saline (PBS) and fixed with 4% paraformaldehyde for 20 min. The cells were washed again with PBS, perforated with 0.1% Triton X-100 for 5 min, and blocked with 10% BSA for 30 min. For Alexa Fluor 488 anti-mouse IgGs, cells were stained with DAPI for 10 min. For B23, histone 1 or GAPDH antibody transfection, cells were stained with Alexa Fluor 488 or 546 anti-mouse IgG antibodies for 30 min and then stained with DAPI. For rhSTIP1 proteins or Flag-Rev peptides transfection, cells were stained with anti-v5 or anti-flag antibodies, respectively, and then stained with Alexa Fluor 488 anti-mouse IgG and DAPI. All images were detected by confocal microscopes (Leica, Wetzlar, Germany). The fluorescent signals were analyzed and quantified by Q-Win software (Leica, Wetzlar, Germany).
FIG. 1 schematically illustrates the protein transfection procedure. Briefly, the protein of interest and a protein transfection composition, such as HEPES buffer, were mixed and incubated for about 15 min to about 30 min to form a mixture (Panel A). Cells to be transfected were replaced in a minimal essential medium (Panel B). The mixture in Panel A was added to the cells in Panel B and incubated at 37° C. for about 4 to about 24 hours (Panel C). The protein transfection efficiency can be analyzed using immunofluorescent staining or flow cytometry (Panel D).
An in vitro evaluation of the optimal protein transfection condition was performed. According to the steps in FIG. 1. rhSTIP1 was incubated with HEPES buffers of different concentrations (5 or 20 mM) or Opti-MEM (control) at room temperature for about 15 minutes to form the protein mixtures to transfect human ovarian cancer cells. The mixtures were added to the cell culture dish comprising Opti-MEM and incubated at 37° C. for about 4 to about 24 hours.
Different amounts of Alexa Fluor® 488 anti-mouse IgG (0, 2, 4, 8, or 16 μg) were incubated with 20 mM HEPES buffer and mixed with ovarian (MDAH2774) cancer cells in Opti-MEM.
Alexa Fluor 488 anti-mouse IgG antibodies were mixed with 20 mM HEPES to form a mixture. […] Protein transfection efficiency was assessed using confocal fluorescent microscope.
The following proteins were incubated with Opti-MEM (control group) or 20-30 mM HEPES buffer to transfect ovarian cancer cells (MDAH2774 or MOSEC) or endometrial cancer cells: Alexa Fluor 488-conjugated, anti-mouse IgG antibody (about 150 kDa), anti-B23 antibody, anti-histone 1 antibody, anti-STIP1 antibody, rhSTIP1 protein (62.6 kDa), Flag-Rev peptide (<5 kDa) and FITC-Rev peptide (<5 kDa). […] Protein transfection efficiency was assessed by staining the transfected cancer cells with Alexa Fluor 488 or 594 anti-mouse IgG antibodies (for Alexa Fluor 488-conjugated anti-mouse IgG antibody, anti-B23 antibody, anti-histone 1 antibody, anti-STIP1 antibody), v5 antibody (for rhSTIP1), or anti-Flag antibody (for Flag-Rev peptide), and fluorescent signals were analyzed with confocal microscopy.
The protein transfection efficiency of HEPES was compared to other commercial reagents, such as PULsin™, ProteoJuice™, Pro-Ject™, Xfect™, and BioPORTER®. […] The transfected ovarian cancer cells were stained with Alexa Fluor 488 anti-mouse IgG antibodies and protein transfection efficiency was assessed by confocal fluorescent microscopy.

[13] = test system: human ovarian cancer cells; experiment: Cytotoxicity of HEPES buffer concentrations (MTT and LDH assay); format: cell-based; conditions: Opti-MEM and HEPES buffer 0-200 mM, 24 h
Description: as §2, §3

For `N=C(N)NC(=O)c1nc(Cl)c(N)nc1N` [amiloride], the “effect on HEPES-mediated IgG transfection” value (“effect” below) [1] was “reduced”.

With `O=S(=O)(O)CCN1CCN(CCO)CC1` [HEPES buffer, 4-(2-hydroxyethyl)-1-piperazineethanesulfonic acid] the “Alexa Fluor 488 anti-mouse IgG signal using HEPES buffer compared to Opti-MEM” value [2] was “increased”, the “Alexa Fluor 488 anti-mouse IgG signal using HEPES buffer compared to Opti-MEM” value [3] was “increased” and the “HEPES buffer concentration at which cell growth was inhibited” value [4] was 50 mM. For the same compound, the “Alexa Fluor 488 anti-mouse IgG signal using HEPES buffer compared to Opti-MEM” value [5] was “increased”, the “Alexa Fluor 488 anti-mouse IgG signal using HEPES buffer compared to Opti-MEM” value [6] was “increased” and the “Alexa Fluor 488 anti-mouse IgG signal using HEPES buffer compared to Opti-MEM” value [7] was “increased”. The “Alexa Fluor 488 anti-mouse IgG signal using HEPES buffer compared to Opti-MEM” value [8] was “increased”, the “Alexa Fluor 488 anti-mouse IgG signal using HEPES buffer compared to Opti-MEM” value [9] was “increased” and the “Alexa Fluor 488 anti-mouse IgG signal using HEPES buffer compared to Opti-MEM” value [10] was “increased”. For the same compound, the “Alexa Fluor 488 anti-mouse IgG signal using HEPES buffer compared to Opti-MEM” value [11] was “increased”, the “transfection of Alexa Fluor 488 anti-mouse IgG antibody in the cytoplasm compared to control group (Opti-MEM)” value ([12]; 20-30 mM HEPES buffer, confocal microscopy) was “increased” and the “IgG transfection efficiency compared to commercial protein transfection reagents” value ([12]; anti-GAPDH antibody, HEPES buffer 20 mM vs PULSin, ProteoJuice, Pro-Ject, Xfect, BioPorter) was “comparable”. For the same compound, the “protein transfection efficiency, second incubation time 24 hours compared to 4 hours” value ([12]; rhSTIP1, 5 mM HEPES buffer) was “improved”, the “protein transfection efficiency as a function of HEPES concentration” value ([12]; rhSTIP1 incubated with HEPES about 15 min, cells in Opti-MEM 4 to 24 hours) was “increases with a higher HEPES concentration; also recorded: does not increase further with HEPES concentration higher than 30 to 50 mM” and the “HEPES buffer concentration at which cell growth was inhibited” value [13] was 50 mM.

In the case of `CCCCC[C@@H](O)[C@H]1C(=O)O[C@H](C)[C@@H](O)/C=C/C=C/C=C/C=C/C=C(\C)[C@@H](O)C[C@H](O)C[C@H](O)C[C@H](O)C[C@H](O)C[C@H](O)C[C@@H]1O` [filipin], the “effect” value [1] is reported as “reduced”.

With `OC[C@H]1O[C@@](CO)(O[C@H]2O[C@H](CO)[C@@H](O)[C@H](O)[C@H]2O)[C@@H](O)[C@@H]1O` [sucrose] the “effect” value [1] was “reduced”.
